Assay in all cases: growth of human tumour cells (NCI), 48 h
The subject of experiment [1] is RPMI-8226 leukemia.
The subject of experiment [2] is NCI-H226 lung.
The test system of experiment [3] is SNB-75 CNS.
Experiment [4] has as its system OVCAR-8 ovarian.
The subject of experiment [5] is HCT-116 colon.
Experiment [6] has as its system HL-60(TB) leukemia.
The test system of experiment [7] is SF-295 CNS.
For experiment [8], the system named is SK-MEL-5 melanoma.

SMILES strings stand for the structures. Where “and” joins values, the source holds several entries; their conditions need not be identical. Equal values may be shown once.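 Protocol summary: plate cells (96-well), add compound at 5 concentrations, incubate 48 h, interpolate endpoints linearly. Abbreviation: GI50, concentration required for 50% inhibition of growth. At the TGI there is no net growth.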 Bounds are passed on as bounds.

With `COc1ccc(-c2nn(-c3cccc(Cl)c3)cc2C2CC(c3ccccc3)=NN2C(C)=O)cc1` (stereo not given), the GI50 in experiment [1] is more than 100 µM; in experiment [2], 3.86 µM; in experiment [3], 1.76 µM; in experiment [4], 4.75 µM; in experiment [5] it was 4.2 µM; in experiment [6] it was more than 100 µM. The GI50 is 5.96 µM in experiment [7] and 30.3 µM in experiment [8]. Besides, the TGI in experiment [1] is more than 100 µM; in experiment [2], 30.9 µM; in experiment [3] it was 5.99 µM; in experiment [4] it was more than 100 µM; in experiment [5], more than 100 µM; in experiment [6], more than 100 µM. The TGI is 40.6 µM in experiment [7] and more than 100 µM in experiment [8].

Take `C[C@@H]1CC[C@H]2C(COCC3=C(C(F)(F)F)O[C@@H]4O[C@@]5(C)CC[C@H]6[C@H](C)CC[C@@H]3[C@@]46OO5)=C(C(F)(F)F)O[C@@H]3O[C@@]4(C)CC[C@@H]1[C@]32OO4`: the GI50 in experiment [1] is less than 0.01 µM; in experiment [2] it was 0.047 µM; in experiment [4], less than 0.0178 µM; in experiment [5], less than 0.01 µM; in experiment [6] it was less than 0.01 µM; in experiment [7], 0.1 µM. Also, the GI50 in experiment [8] was 0.0109 µM. Further, the TGI in experiment [1], in experiment [2], in experiment [4], in experiment [5], in experiment [6] and in experiment [8] was more than 100 µM in each case.

On to `CCn1c(-c2nonc2N)nc2c(C#CCN)ncc(OCCCN)c21`, for which the GI50 in experiment [1] was more than 25 µM; in experiment [2], more than 25 µM; in experiment [3], more than 24.2 µM; in experiment [4], more than 25 µM; in experiment [5], more than 25 µM; in experiment [6] it was more than 25 µM. The GI50 in experiment [7] and in experiment [8] was more than 25 µM each time. Also, the TGI in experiment [1], in experiment [2], in experiment [3], in experiment [4], in experiment [5] and in experiment [6] was more than 25 µM in each case. Also, the TGI in experiment [7] and in experiment [8] was more than 25 µM in each case.

Turning to `O=C(Nc1cccc(-n2ccc3c(NC(=O)c4ccccc4)nccc32)c1)c1cccc(C(F)(F)F)c1`, the GI50 is 0.0327 µM in experiment [1]; 0.153 µM in experiment [2]; 0.036 µM in experiment [4]; 0.0364 µM in experiment [5]; 0.0343 µM in experiment [6]; 0.0278 µM in experiment [7]. For the same molecule, the GI50 in experiment [8] is 0.0341 µM. Further, the TGI in experiment [1] was 1.17 µM; in experiment [2], more than 68.6 µM; in experiment [4] it was 2.43 µM; in experiment [5], 1.46 µM; in experiment [6], 0.653 µM; in experiment [7], 0.468 µM. In experiment [8], the TGI was 0.152 µM.

Consider `C=C1C(O)C2CCC(C)(C)C(=O)C2=C(CC(C)C)C12CC2` (stereo not given), for which the GI50 in experiment [1] is 22.3 µM; in experiment [2], 43.5 µM; in experiment [3], 93.1 µM; in experiment [4] it was more than 100 µM; in experiment [5], 37.2 µM; in experiment [7] it was 36.6 µM. In experiment [8], the GI50 is 24.8 µM. Moreover, the TGI in experiment [1] was 56.8 µM; in experiment [2] it was more than 100 µM; in experiment [3], more than 100 µM; in experiment [4], more than 100 µM; in experiment [5] it was more than 100 µM; in experiment [7], more than 100 µM. The molecule also showed a TGI in experiment [8] of more than 100 µM.

Regarding `CNC(=O)c1ccccc1CC1(O)c2ccccc2Oc2ccccc21`, the GI50 in experiment [1] was 26.6 µM; in experiment [2] it was 11.3 µM; in experiment [3], 12.4 µM; in experiment [4] it was 29.1 µM; in experiment [5], 21.8 µM; in experiment [7], 20.7 µM. For the same molecule, in experiment [8], the GI50 was 3.2 µM. The TGI is 91.7 µM in experiment [1]; 34.8 µM in experiment [2]; 39 µM in experiment [3]; more than 100 µM in experiment [4]; more than 100 µM in experiment [5]; more than 100 µM in experiment [7]. The TGI in experiment [8] was determined as 13 µM.

Consider `O=C1/C(=C/c2ccc(F)cc2)CCOc2ccc([N+](=O)[O-])cc21`, for which the GI50 in experiment [1] is 0.862 µM; in experiment [2], 20.1 µM; in experiment [4] it was 2.68 µM; in experiment [5], 1.5 µM; in experiment [7], 3.08 µM; in experiment [8], 1.84 µM. The TGI was found to be 3.14 µM in experiment [1]; 39.6 µM in experiment [2]; 9.24 µM in experiment [4]; 3.01 µM in experiment [5]; 9.23 µM in experiment [7]; 3.6 µM in experiment [8].

As for `Cc1ccn2c3c(c(C(=O)O)c2c1)C(=O)c1ccccc1C3=O`, the GI50 in experiment [1] is more than 100 µM; in experiment [2], 2.46 µM; in experiment [4], more than 100 µM; in experiment [5], more than 48.3 µM; in experiment [6], more than 100 µM; in experiment [7], 2.25 µM. Moreover, the GI50 in experiment [8] is 0.679 µM. In addition, the TGI is more than 100 µM in experiment [1]; 17.4 µM in experiment [2]; more than 100 µM in experiment [4]; more than 100 µM in experiment [5]; more than 100 µM in experiment [6]; 8.68 µM in experiment [7]. Besides, the TGI in experiment [8] amounted to 1.97 µM.

As for `COc1cc2c3c(cccc3c1)C(=O)N(CCN1CCCC1)C2=O`, the GI50 in experiment [3] was 1.63 µM; in experiment [4], 1.66 µM; in experiment [5], 0.753 µM; in experiment [6] it was 3.65 µM; in experiment [7], 2.46 µM; in experiment [8], 1.56 µM. Besides, the TGI in experiment [3] is 3.65 µM; in experiment [4], more than 100 µM; in experiment [5], more than 100 µM; in experiment [6], 61 µM; in experiment [7] it was 6.44 µM; in experiment [8] it was 3.06 µM.

Regarding `CCc1c2c(nc3cc4c(cc13)OCO4)-c1cc3c(c(=O)n1C2)COC(=O)[C@]3(O)CC`, the GI50 in experiment [1] was 0.00315 µM; in experiment [2], less than 0.001 µM; in experiment [5], 1.31 µM; in experiment [6] it was less than 0.001 µM; in experiment [7], less than 0.001 µM. In addition, the TGI is 0.391 µM in experiment [1]; 0.227 µM in experiment [2]; more than 100 µM in experiment [5]; 0.0648 µM and 0.143 µM in experiment [8].

Turning to `COc1ccc(/C=C/C=C(/C#N)C(N)=S)cc1`, the GI50 in experiment [2] was 55.7 µM; in experiment [3] it was 29.7 µM; in experiment [4], 21.5 µM; in experiment [5], 15.6 µM; in experiment [6], 26 µM; in experiment [7], 31 µM. Besides, the GI50 in experiment [8] was 18.3 µM. Moreover, the TGI is more than 100 µM in experiment [2]; 99.6 µM in experiment [3]; 54.3 µM in experiment [4]; 31 µM in experiment [5]; more than 100 µM in experiment [6]; more than 100 µM in experiment [7]. Also, in experiment [8], the TGI turned out to be 36.4 µM.

Consider `COc1ccc(-c2cc(-c3cc(Cl)ccc3Cl)nc3[nH]c(-c4cc(F)c(Cl)cc4Cl)cc(=O)c23)cc1`, for which the GI50 in experiment [1] is 25 µM; in experiment [2], 20.5 µM; in experiment [3] it was more than 100 µM; in experiment [4] it was 17 µM; in experiment [5], 9.69 µM; in experiment [7], 23.8 µM. In addition, in experiment [8], the GI50 was 7.63 µM. For the same molecule, the TGI in experiment [1] is 69.1 µM; in experiment [2] it was 63.6 µM; in experiment [3] it was more than 100 µM; in experiment [4], 51.3 µM; in experiment [5], 24.7 µM; in experiment [7] it was more than 100 µM. The molecule also showed a TGI in experiment [8] of 33.4 µM.

On to `CCC(C)C1NC(=O)c2nc(oc2-c2ccccc2)-c2csc(n2)-c2csc(n2)-c2nc(oc2C)-c2coc(n2)CNC(=O)C(C(C)CC)NC1=O` (stereo not given), for which the GI50 in experiment [3] was 0.0354 µM; in experiment [4] it was 0.0216 µM; in experiment [7] it was 0.0469 µM. Moreover, the TGI in experiment [3] is 0.175 µM; in experiment [4], 0.182 µM; in experiment [5] it was 0.0335 µM; in experiment [7], 0.178 µM.

Regarding `COC(=O)C1OC(O[C@H]2CCC3(C)C(CCC4(C)C3CC=C3C5CC(C)(C)CCC5(C(=O)O)CC[C@]34C)C2(C)C)C(O)C(OC2OC(CO)C(O)C(O)C2O)C1O` (stereo not given in full), the GI50 in experiment [2] is 6.18 µM; in experiment [4] it was 9.96 µM; in experiment [5], 6.39 µM; in experiment [6], 6.92 µM; in experiment [7], 11.8 µM; in experiment [8] it was 6.14 µM. In addition, the TGI in experiment [2] is 12.2 µM; in experiment [4] it was 27.6 µM; in experiment [5] it was 11.5 µM; in experiment [6] it was 18.2 µM; in experiment [7] it was more than 33.3 µM; in experiment [8] it was 11.4 µM.

On to `Cc1nn(-c2ccc(S(=O)(=O)[O-])cc2)c([O-])c1N=[N+](C)c1ccc(-c2ccc(N=Nc3ccc4c(S(=O)(=O)[O-])cc(S(=O)(=O)[O-])c(N)c4c3[O-])c([O-])c2)cc1[O-].[Cu+2].[Cu+2].[Na+]`, for which the GI50 in experiment [1], in experiment [2], in experiment [3], in experiment [4], in experiment [5] and in experiment [7] was more than 100 µM each time. Besides, the GI50 in experiment [8] is more than 100 µM. The TGI in experiment [1], in experiment [2], in experiment [3], in experiment [4], in experiment [5] and in experiment [7] was more than 100 µM each time. Further, in experiment [8], the TGI is more than 100 µM.

(Values after PubChem BioAssay (NCI).)
